Columns and labels:
[1] = target: T1, Nitric oxide synthase, inducible (Homo sapiens, UniProt P35228); settings: 10 uM
Nitric oxide synthase 1 [2] = target: T2, Nitric oxide synthase 1 (Homo sapiens, UniProt P29475); settings: 10 uM
Nitric oxide synthase 3 [3] = target: T3, Nitric oxide synthase 3 (Homo sapiens, UniProt P29474); assay: Percent inhibition against Endothelial nitric oxide synthase (eNOS) at 10 uM concentration
T3 sequence (P29474 whole entry): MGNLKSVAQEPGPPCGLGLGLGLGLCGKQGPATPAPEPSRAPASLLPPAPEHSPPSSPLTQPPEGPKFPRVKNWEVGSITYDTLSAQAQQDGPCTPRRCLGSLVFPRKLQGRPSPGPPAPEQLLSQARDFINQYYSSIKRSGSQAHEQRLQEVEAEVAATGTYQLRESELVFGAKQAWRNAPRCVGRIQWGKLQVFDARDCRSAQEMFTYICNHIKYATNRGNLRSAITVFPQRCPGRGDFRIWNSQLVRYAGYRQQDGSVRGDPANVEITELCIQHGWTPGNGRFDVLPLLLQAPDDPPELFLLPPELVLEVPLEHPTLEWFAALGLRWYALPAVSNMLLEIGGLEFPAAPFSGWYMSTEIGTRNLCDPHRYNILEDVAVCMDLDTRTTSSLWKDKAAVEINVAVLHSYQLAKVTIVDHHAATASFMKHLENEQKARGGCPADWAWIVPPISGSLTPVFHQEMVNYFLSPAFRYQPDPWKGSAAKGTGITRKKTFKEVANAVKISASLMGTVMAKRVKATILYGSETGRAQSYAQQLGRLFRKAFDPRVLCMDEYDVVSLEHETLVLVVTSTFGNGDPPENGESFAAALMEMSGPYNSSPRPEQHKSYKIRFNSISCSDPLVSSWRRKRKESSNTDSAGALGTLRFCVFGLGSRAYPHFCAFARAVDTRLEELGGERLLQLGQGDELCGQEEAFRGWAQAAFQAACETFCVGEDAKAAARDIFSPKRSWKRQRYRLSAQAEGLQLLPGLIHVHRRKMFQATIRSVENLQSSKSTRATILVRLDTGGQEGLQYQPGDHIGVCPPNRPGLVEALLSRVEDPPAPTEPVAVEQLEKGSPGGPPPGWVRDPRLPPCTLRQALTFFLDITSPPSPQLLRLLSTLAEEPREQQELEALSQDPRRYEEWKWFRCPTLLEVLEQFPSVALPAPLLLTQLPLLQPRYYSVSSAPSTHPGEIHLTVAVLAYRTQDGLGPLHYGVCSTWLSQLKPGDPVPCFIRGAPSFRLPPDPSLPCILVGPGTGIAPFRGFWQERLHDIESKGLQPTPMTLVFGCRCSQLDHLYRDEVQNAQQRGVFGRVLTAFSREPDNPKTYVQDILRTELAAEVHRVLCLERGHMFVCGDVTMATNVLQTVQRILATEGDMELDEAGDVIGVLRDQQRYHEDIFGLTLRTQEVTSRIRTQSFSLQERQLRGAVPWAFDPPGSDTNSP

Nitric oxide synthase 3 [4] = target: T3, Nitric oxide synthase 3; assay: (§1) Inhibition concentration against Endothelial nitric oxide synthase (eNOS) at 10 uM concentration
[5] = target: T4, Nitric oxide synthase 3 (Homo sapiens) (UniProt P29474); assay: Selectivity for endothelial nitric oxide synthase over inducible nitric oxide synthase
T4 sequence (whole entry): T3 sequence (P29474 whole entry)

[6] = target: T1, Nitric oxide synthase, inducible; assay: Inhibition concentration against Inducible nitric oxide synthase (iNOS) at 10 uM concentration
Nitric oxide synthase 1 [7] = target: T2, Nitric oxide synthase 1; assay: Inhibition concentration against Neuronal nitric oxide synthase (nNOS) at 10 uM concentration
Nitric oxide synthase 1 [8] = target: T2, Nitric oxide synthase 1; assay: Selectivity for Neuronal nitric oxide synthase over inducible nitric oxide synthase
[9] = target: T4, Nitric oxide synthase 3 (Homo sapiens); assay: as §1

T1 sequence (P35228 whole entry): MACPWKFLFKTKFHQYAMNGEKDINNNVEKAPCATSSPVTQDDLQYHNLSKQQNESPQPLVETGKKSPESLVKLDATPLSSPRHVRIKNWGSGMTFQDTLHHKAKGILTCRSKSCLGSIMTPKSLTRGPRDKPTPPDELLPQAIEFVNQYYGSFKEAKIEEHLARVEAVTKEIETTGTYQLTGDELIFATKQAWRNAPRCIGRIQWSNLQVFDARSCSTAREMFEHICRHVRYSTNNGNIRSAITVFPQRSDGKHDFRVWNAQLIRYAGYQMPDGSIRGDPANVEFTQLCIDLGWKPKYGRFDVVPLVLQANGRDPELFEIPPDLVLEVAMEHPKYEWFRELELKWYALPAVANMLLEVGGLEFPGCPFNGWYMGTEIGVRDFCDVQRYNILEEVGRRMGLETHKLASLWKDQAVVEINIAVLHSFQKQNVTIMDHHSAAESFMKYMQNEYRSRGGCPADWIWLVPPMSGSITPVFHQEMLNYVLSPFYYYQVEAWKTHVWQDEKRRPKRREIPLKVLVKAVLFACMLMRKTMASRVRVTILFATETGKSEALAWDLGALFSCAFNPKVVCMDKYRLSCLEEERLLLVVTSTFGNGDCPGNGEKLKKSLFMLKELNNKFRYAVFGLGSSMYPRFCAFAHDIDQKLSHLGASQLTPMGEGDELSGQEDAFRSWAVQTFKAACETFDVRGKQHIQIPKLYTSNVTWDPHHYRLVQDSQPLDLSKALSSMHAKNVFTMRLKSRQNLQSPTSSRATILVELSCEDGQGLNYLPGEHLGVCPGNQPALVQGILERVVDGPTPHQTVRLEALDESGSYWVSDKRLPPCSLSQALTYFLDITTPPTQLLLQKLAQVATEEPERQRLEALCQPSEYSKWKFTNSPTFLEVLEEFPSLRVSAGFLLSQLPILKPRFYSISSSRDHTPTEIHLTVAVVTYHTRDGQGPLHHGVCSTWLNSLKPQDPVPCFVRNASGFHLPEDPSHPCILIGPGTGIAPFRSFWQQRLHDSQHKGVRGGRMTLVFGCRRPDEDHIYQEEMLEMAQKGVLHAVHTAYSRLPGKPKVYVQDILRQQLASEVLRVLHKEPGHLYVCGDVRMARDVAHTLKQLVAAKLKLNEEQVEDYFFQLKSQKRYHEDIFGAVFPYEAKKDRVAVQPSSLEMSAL
T2 sequence (P29475 whole entry): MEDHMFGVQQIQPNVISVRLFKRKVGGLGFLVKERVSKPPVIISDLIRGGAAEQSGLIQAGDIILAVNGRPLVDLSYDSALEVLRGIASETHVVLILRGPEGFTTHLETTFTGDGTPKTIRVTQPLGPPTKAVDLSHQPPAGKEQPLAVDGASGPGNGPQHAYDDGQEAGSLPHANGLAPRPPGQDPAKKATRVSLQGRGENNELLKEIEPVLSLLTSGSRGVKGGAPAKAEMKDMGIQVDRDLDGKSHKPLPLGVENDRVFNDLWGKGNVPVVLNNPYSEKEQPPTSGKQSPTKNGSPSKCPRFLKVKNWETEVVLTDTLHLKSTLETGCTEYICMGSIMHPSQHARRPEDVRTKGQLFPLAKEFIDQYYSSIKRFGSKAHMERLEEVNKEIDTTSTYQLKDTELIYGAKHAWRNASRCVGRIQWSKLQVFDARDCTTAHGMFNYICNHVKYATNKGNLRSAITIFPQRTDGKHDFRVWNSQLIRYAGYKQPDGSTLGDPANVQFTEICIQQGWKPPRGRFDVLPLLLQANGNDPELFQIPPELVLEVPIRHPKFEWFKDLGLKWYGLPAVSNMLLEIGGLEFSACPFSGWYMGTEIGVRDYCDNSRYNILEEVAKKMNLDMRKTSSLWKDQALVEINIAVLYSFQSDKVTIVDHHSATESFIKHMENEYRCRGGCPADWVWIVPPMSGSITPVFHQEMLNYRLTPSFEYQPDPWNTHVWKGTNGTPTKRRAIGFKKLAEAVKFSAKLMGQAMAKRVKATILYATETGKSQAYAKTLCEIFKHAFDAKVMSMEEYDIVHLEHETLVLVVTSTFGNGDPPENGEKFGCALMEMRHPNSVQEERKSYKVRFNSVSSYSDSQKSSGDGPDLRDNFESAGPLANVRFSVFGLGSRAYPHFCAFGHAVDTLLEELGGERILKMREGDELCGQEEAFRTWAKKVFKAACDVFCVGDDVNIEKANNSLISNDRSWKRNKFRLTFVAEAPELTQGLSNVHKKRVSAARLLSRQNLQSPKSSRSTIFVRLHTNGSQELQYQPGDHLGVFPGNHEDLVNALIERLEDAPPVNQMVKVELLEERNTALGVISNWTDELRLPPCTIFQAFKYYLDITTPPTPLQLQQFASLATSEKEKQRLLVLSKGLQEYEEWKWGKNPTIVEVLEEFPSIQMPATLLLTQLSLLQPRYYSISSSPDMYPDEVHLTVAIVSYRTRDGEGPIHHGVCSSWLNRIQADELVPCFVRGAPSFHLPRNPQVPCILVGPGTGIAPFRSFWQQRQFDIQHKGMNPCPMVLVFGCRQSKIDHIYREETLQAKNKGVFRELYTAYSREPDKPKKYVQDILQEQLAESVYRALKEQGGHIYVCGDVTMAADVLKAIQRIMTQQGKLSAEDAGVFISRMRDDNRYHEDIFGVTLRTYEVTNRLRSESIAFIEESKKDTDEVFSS

SMILES | inhibition [1] [%] | inhibition (Nitric oxide synthase 1 [2]) [%] | Inhibition (Nitric oxide synthase 3 [3]) [%] | IC50 (Nitric oxide synthase 3 [4]) [µM] | Selectivity [5] | IC50 [6] [µM] | IC50 (Nitric oxide synthase 1 [7]) [µM] | Selectivity (Nitric oxide synthase 1 [8]) | inhibition [9] [%]
CC(=N)NC[C@H](F)CC[C@H](N)C(=O)O | 4 | 0 | 28.2 |  |  |  |  |  | 
CC(=N)NCC(F)(F)CCC(N)C(=O)O (centres undefined) |  |  |  | 139 | 7 | 21.4 | 140 | 7 | 
CC(=N)NCC(F)CCC(N)C(=O)O (centres undefined) |  |  |  | 182 | 23 | 7.84 | 70.4 | 9 | 
CC(=N)NC[C@H](F)CC[C@@H](N)C(=O)O | 8.9 | 18 |  |  |  |  |  |  | 6.52
CC(=N)NC[C@@H](F)CC[C@@H](N)C(=O)O |  |  |  | 374 | 8 | 47.8 | 311 | 7 | 
CC(=N)NC[C@@H](F)CC[C@H](N)C(=O)O |  |  |  | 81 | 34 | 2.36 | 21.7 | 9 | 
CC(=N)NCC(F)(F)CC[C@H](N)C(=O)O |  |  |  | 57.5 | 7 | 8.75 | 33.8 | 4 | 
CC(=N)NCCCC[C@H](N)C(=O)O [L-NIL] |  |  |  |  | 28 | 4.9 |  | 7 | 

— ChEMBL document CHEMBL1148413, “5-Fluorinated L-lysine analogues as selective induced nitric oxide synthase inhibitors” (J Med Chem, 2004)
